Tests used:
Assay in all cases: cells
Assay type in all cases: functional, cell-based, Homo sapiens
MHH-PREB-1 = conditions: Homo sapiens, MHH-PREB-1;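 further: cell viability assay measuring inhibition of proliferation of human MHH-PREB-1 cells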
Description: SANGER: Inhibition of human MHH-PREB-1 cell growth in a cell viability assay.

EW-13 = conditions: Homo sapiens, EW-13;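 further: growth inhibition of EW-13 cells, read out with a cell viability assay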
Description: SANGER: Inhibition of human EW-13 cell growth in a cell viability assay.

KINGS-1 = conditions: Homo sapiens, KINGS-1;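 further: cell viability assay measuring suppression of KINGS-1 cell growth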
Description: SANGER: Inhibition of human KINGS-1 cell growth in a cell viability assay.

EOL1 = conditions: Homo sapiens, EOL1;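 further: growth inhibition of EoL-1 cells, read out by a cell viability assay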
Description: SANGER: Inhibition of human EoL-1-cell cell growth in a cell viability assay.

KURAMOCHI = conditions: Homo sapiens, KURAMOCHI;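 further: growth inhibition of KURAMOCHI cells, read out with a cell viability assay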
Description: SANGER: Inhibition of human KURAMOCHI cell growth in a cell viability assay.

KMOE-2 = conditions: Homo sapiens, KMOE-2;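 further: growth inhibition of human KMOE-2 cells, read out with a cell viability assay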
Description: SANGER: Inhibition of human KMOE-2 cell growth in a cell viability assay.

D-263MG = conditions: Homo sapiens, D-263MG
Description: SANGER: Inhibition of human D-263MG cell growth in a cell viability assay.

QIMR-WIL = conditions: Homo sapiens, QIMR-WIL;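 further: growth inhibition of QIMR-WIL cells, read out with a cell viability assay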
Description: SANGER: Inhibition of human QIMR-WIL cell growth in a cell viability assay.

D-392MG = conditions: Homo sapiens, D-392MG
TE-6 = conditions: Homo sapiens, TE-6;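 further: growth inhibition of TE-6 cells, read out with a cell viability assay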
Description: SANGER: Inhibition of human TE-6 cell growth in a cell viability assay.

MS-1 = conditions: Homo sapiens, MS-1
Description: SANGER: Inhibition of human MS-1 cell growth in a cell viability assay.

SK-LMS-1 = conditions: Homo sapiens, SK-LMS-1;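 further: growth inhibition of human SK-LMS-1 cells, read out with a cell viability assay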
Description: SANGER: Inhibition of human SK-LMS-1 cell growth in a cell viability assay.

A101D = conditions: Homo sapiens, A101D;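 further: growth inhibition of the cell line, measured with a viability assay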
Description: SANGER: Inhibition of human A101D cell growth in a cell viability assay.

LAMA-84 = conditions: Homo sapiens, LAMA-84;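 further: growth inhibition of LAMA-84 cells, read out with a cell viability assay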
Description: SANGER: Inhibition of human LAMA-84 cell growth in a cell viability assay.

LB373-MEL-D = conditions: Homo sapiens, LB373-MEL-D;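 further: growth inhibition of the cell line, read out in a cell viability assay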
Description: SANGER: Inhibition of human LB373-MEL-D cell growth in a cell viability assay.

SK-NEP-1 = conditions: Homo sapiens, SK-NEP-1;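 further: growth inhibition of human SK-NEP-1 cells, read out by a cell viability assay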
Description: SANGER: Inhibition of human SK-NEP-1 cell growth in a cell viability assay.

NB13 = conditions: Homo sapiens, NB13;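 further: cell viability readout measuring growth inhibition of human NB13 cells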
Description: SANGER: Inhibition of human NB13 cell growth in a cell viability assay.

BB65-RCC = conditions: Homo sapiens, BB65-RCC;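 further: growth inhibition of the cell line, measured with a cell viability assay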
Description: SANGER: Inhibition of human BB65-RCC cell growth in a cell viability assay.

SNU-C2B = conditions: Homo sapiens, SNU-C2B;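 further: cell viability readout used to measure compound-driven suppression of SNU-C2B cell proliferation, IC50 marking half-maximal growth inhibition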
Description: SANGER: Inhibition of human SNU-C2B cell growth in a cell viability assay.

HT-144 = conditions: Homo sapiens, HT-144
Description: SANGER: Inhibition of human HT-144 cell growth in a cell viability assay.

MOLT-4 = conditions: Homo sapiens, MOLT-4;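 further: growth inhibition of MOLT-4 cells, determined with a cell viability readout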
Description: SANGER: Inhibition of human MOLT-4 cell growth in a cell viability assay.

IST-MES1 = conditions: Homo sapiens, IST-MES1;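 further: growth inhibition of IST-MES1 cells, measured with a cell viability assay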
Description: SANGER: Inhibition of human IST-MES1 cell growth in a cell viability assay.

HOP-62 = conditions: Homo sapiens, HOP-62;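 further: cell growth inhibition determined with a viability assay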
Description: SANGER: Inhibition of human HOP-62 cell growth in a cell viability assay.

RPMI-8226 = conditions: Homo sapiens, RPMI-8226
Description: SANGER: Inhibition of human RPMI-8226 cell growth in a cell viability assay.

J-RT3-T3-5 = conditions: Homo sapiens, J-RT3-T3-5;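 further: cell viability assay measuring growth inhibition of human J-RT3-T3-5 cells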
Description: SANGER: Inhibition of human J-RT3-T3-5 cell growth in a cell viability assay.

DMS-79 = conditions: Homo sapiens, DMS-79;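 further: growth inhibition measured with a cell viability assay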
Description: SANGER: Inhibition of human DMS-79 cell growth in a cell viability assay.

A704 = conditions: Homo sapiens, A704;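 further: growth inhibition of human A704 cells, read out with a cell viability assay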
Description: SANGER: Inhibition of human A704 cell growth in a cell viability assay.

KG-1 = conditions: Homo sapiens, KG-1;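 further: growth inhibition of KG-1 cells, read out by a cell viability assay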
Description: SANGER: Inhibition of human KG-1 cell growth in a cell viability assay.

EKVX = conditions: Homo sapiens, EKVX;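 further: growth inhibition of human EKVX cells, read out with a cell viability assay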
Description: SANGER: Inhibition of human EKVX cell growth in a cell viability assay.

PSN1 = conditions: Homo sapiens, PSN1;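 further: suppression of growth of human PSN1 cells, read out by a cell viability assay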
Description: SANGER: Inhibition of human PSN1 cell growth in a cell viability assay.

NCI-H1355 = conditions: Homo sapiens, NCI-H1355;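 further: growth inhibition of human NCI-H1355 cells, read out by a cell viability assay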
Description: SANGER: Inhibition of human NCI-H1355 cell growth in a cell viability assay.

SW 962 = conditions: Homo sapiens, SW 962;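 further: growth inhibition of human SW962 cells, read out by a cell viability assay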
Description: SANGER: Inhibition of human SW962 cell growth in a cell viability assay.

DEL = conditions: Homo sapiens, DEL;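 further: growth inhibition of the human DEL cell line, read out with a cell viability assay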
Description: SANGER: Inhibition of human DEL cell growth in a cell viability assay.

LXF-289 cell line = conditions: Homo sapiens, LXF-289
Description: SANGER: Inhibition of human LXF-289 cell growth in a cell viability assay.

MFM-223 = conditions: Homo sapiens, MFM-223
Description: SANGER: Inhibition of human MFM-223 cell growth in a cell viability assay.

BT-474 = conditions: Homo sapiens, BT-474
Description: SANGER: Inhibition of human BT-474 cell growth in a cell viability assay.

SW982 = conditions: Homo sapiens, SW982;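 further: growth inhibition of SW982 cells, read out with a cell viability assay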
Description: SANGER: Inhibition of human SW982 cell growth in a cell viability assay.

Becker = conditions: Homo sapiens, Becker;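 further: growth inhibition of Becker cells, read out with a cell viability assay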
Description: SANGER: Inhibition of human Becker cell growth in a cell viability assay.

NCI-H1770 = conditions: Homo sapiens, NCI-H1770;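 further: growth inhibition of NCI-H1770 cells determined with a viability readout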
Description: SANGER: Inhibition of human NCI-H1770 cell growth in a cell viability assay.

GT3TKB = conditions: Homo sapiens, GT3TKB;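 further: growth inhibition of the cell line, read out with a cell viability assay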
Description: SANGER: Inhibition of human GT3TKB cell growth in a cell viability assay.

OCI-AML2 = conditions: Homo sapiens, OCI-AML2;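 further: growth inhibition of OCI-AML2 cells, read out with a cell viability assay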
Description: SANGER: Inhibition of human OCI-AML2 cell growth in a cell viability assay.

MLMA = conditions: Homo sapiens, MLMA;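 further: growth inhibition of MLMA cells (human), determined through a cell viability readout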
Description: SANGER: Inhibition of human MLMA cell growth in a cell viability assay.

CTV-1 = conditions: Homo sapiens, CTV-1;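 further: growth inhibition of the cell line, read out with a cell viability assay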
Description: SANGER: Inhibition of human CTV-1 cell growth in a cell viability assay.

OS-RC-2 = conditions: Homo sapiens, OS-RC-2;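 further: growth inhibition of human OS-RC-2 cells, measured by a cell viability assay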
Description: SANGER: Inhibition of human OS-RC-2 cell growth in a cell viability assay.

GI-ME-N = conditions: Homo sapiens, GI-ME-N;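 further: growth inhibition of human GI-ME-N cells, read out with a cell viability assay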
Description: SANGER: Inhibition of human GI-ME-N cell growth in a cell viability assay.

EW-1 = conditions: Homo sapiens, EW-1
Description: SANGER: Inhibition of human EW-1 cell growth in a cell viability assay.

SCC-15 = conditions: Homo sapiens, SCC-15;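 further: growth inhibition of SCC-15 cells, read out with a cell viability assay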
Description: SANGER: Inhibition of human SCC-15 cell growth in a cell viability assay.

CW-2 = conditions: Homo sapiens, CW-2;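 further: growth inhibition of CW-2 cells, read out by a cell viability assay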
Description: SANGER: Inhibition of human CW-2 cell growth in a cell viability assay.

RKO = conditions: Homo sapiens, RKO;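 further: growth inhibition of human RKO cells, read out with a cell viability assay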
Description: SANGER: Inhibition of human RKO cell growth in a cell viability assay.

SMILES: Cc1cc([N+](=O)[O-])ccc1NS(=O)(=O)c1cc(Cl)ccc1Cl
- IC50 (MHH-PREB-1): 5.95 µM
- IC50 (EW-13): 6.04 µM
- IC50 (KINGS-1): > 32 µM
- IC50 (EOL1): 4.95 µM
- IC50 (KURAMOCHI): 1.33 µM
- IC50 (KMOE-2): 3.84 µM
- IC50 (D-263MG): 10.7 µM
- IC50 (QIMR-WIL): 6.82 µM
- IC50 (D-392MG): > 32 µM
- IC50 (TE-6): 19.2 µM
- IC50 (MS-1): 16.4 µM
- IC50 (SK-LMS-1): 3.1 µM
- IC50 (A101D): 4.55 µM
- IC50 (LAMA-84): 6.09 µM
- IC50 (LB373-MEL-D): 2.86 µM
- IC50 (SK-NEP-1): 19.2 µM
- IC50 (NB13): 7.32 µM
- IC50 (BB65-RCC): 6.37 µM
- IC50 (SNU-C2B): 4.29 µM
- IC50 (HT-144): 2.94 µM
- IC50 (MOLT-4): > 32 µM
- IC50 (IST-MES1): 4.85 µM
- IC50 (HOP-62): 5.08 µM
- IC50 (RPMI-8226): 6.56 µM
- IC50 (J-RT3-T3-5): 5.35 µM
- IC50 (DMS-79): > 32 µM
- IC50 (A704): 2.58 µM
- IC50 (KG-1): 7 µM
- IC50 (EKVX): 7.56 µM
- IC50 (PSN1): 3.22 µM
- IC50 (NCI-H1355): 2.93 µM
- IC50 (SW 962): 4.68 µM
- IC50 (DEL): 6.68 µM
- IC50 (LXF-289 cell line): 5.36 µM
- IC50 (MFM-223): > 32 µM
- IC50 (BT-474): 4.42 µM
- IC50 (SW982): 9.22 µM
- IC50 (Becker): 16.5 µM
- IC50 (NCI-H1770): 17.1 µM
- IC50 (GT3TKB): 2.9 µM
- IC50 (OCI-AML2): 2.52 µM
- IC50 (MLMA): 8.96 µM
- IC50 (CTV-1): 5.06 µM
- IC50 (OS-RC-2): 6.75 µM
- IC50 (GI-ME-N): 11.5 µM
- IC50 (EW-1): 15.3 µM
- IC50 (SCC-15): 3.94 µM
- IC50 (CW-2): > 32 µM
- IC50 (RKO): 2.21 µM

SMILES: Oc1ccc2ccccc2c1SSc1c(O)ccc2ccccc12
- IC50 (MHH-PREB-1): 3.47 µM
- IC50 (EW-13): 4.2 µM
- IC50 (KINGS-1): > 32 µM
- IC50 (EOL1): > 32 µM
- IC50 (KURAMOCHI): > 32 µM
- IC50 (KMOE-2): > 32 µM
- IC50 (D-263MG): > 32 µM
- IC50 (QIMR-WIL): 2.91 µM
- IC50 (D-392MG): > 32 µM
- IC50 (TE-6): > 32 µM
- IC50 (MS-1): > 32 µM
- IC50 (SK-LMS-1): 14.8 µM
- IC50 (A101D): > 32 µM
- IC50 (LAMA-84): > 32 µM
- IC50 (LB373-MEL-D): > 32 µM
- IC50 (SK-NEP-1): > 32 µM
- IC50 (NB13): 4.23 µM
- IC50 (BB65-RCC): > 32 µM
- IC50 (SNU-C2B): > 32 µM
- IC50 (HT-144): > 32 µM
- IC50 (MOLT-4): 14 µM
- IC50 (IST-MES1): > 32 µM
- IC50 (HOP-62): > 32 µM
- IC50 (RPMI-8226): > 32 µM
- IC50 (J-RT3-T3-5): > 32 µM
- IC50 (DMS-79): > 32 µM
- IC50 (A704): > 32 µM
- IC50 (KG-1): > 32 µM
- IC50 (EKVX): > 32 µM
- IC50 (PSN1): > 32 µM
- IC50 (NCI-H1355): > 32 µM
- IC50 (SW 962): > 32 µM
- IC50 (DEL): 9.64 µM
- IC50 (LXF-289 cell line): > 32 µM
- IC50 (MFM-223): > 32 µM
- IC50 (BT-474): 7.41 µM
- IC50 (SW982): > 32 µM
- IC50 (Becker): > 32 µM
- IC50 (NCI-H1770): > 32 µM
- IC50 (GT3TKB): > 32 µM
- IC50 (OCI-AML2): 8.06 µM
- IC50 (MLMA): 29.2 µM
- IC50 (CTV-1): 9.36 µM
- IC50 (OS-RC-2): > 32 µM
- IC50 (GI-ME-N): > 32 µM
- IC50 (EW-1): 14.2 µM
- IC50 (SCC-15): > 32 µM
- IC50 (CW-2): > 32 µM
- IC50 (RKO): 5.28 µM

SMILES: C=C(c1ccc(C(=O)O)cc1)c1cc2c(cc1C)C(C)(C)CCC2(C)C [BEXAROTENE]
- IC50 (MHH-PREB-1): > 8 µM
- IC50 (EW-13): 0.485 µM
- IC50 (KINGS-1): > 8 µM
- IC50 (EOL1): > 8 µM
- IC50 (KURAMOCHI): > 8 µM
- IC50 (KMOE-2): > 8 µM
- IC50 (D-263MG): > 8 µM
- IC50 (QIMR-WIL): > 8 µM
- IC50 (D-392MG): > 8 µM
- IC50 (TE-6): > 8 µM
- IC50 (MS-1): > 8 µM
- IC50 (SK-LMS-1): 7.62 µM
- IC50 (A101D): > 8 µM
- IC50 (LAMA-84): > 8 µM
- IC50 (LB373-MEL-D): > 8 µM
- IC50 (SK-NEP-1): > 8 µM
- IC50 (NB13): > 8 µM
- IC50 (BB65-RCC): > 8 µM
- IC50 (SNU-C2B): > 8 µM
- IC50 (HT-144): > 8 µM
- IC50 (MOLT-4): > 8 µM
- IC50 (IST-MES1): > 8 µM
- IC50 (HOP-62): > 8 µM
- IC50 (RPMI-8226): > 8 µM
- IC50 (J-RT3-T3-5): > 8 µM
- IC50 (DMS-79): > 8 µM
- IC50 (A704): > 8 µM
- IC50 (KG-1): > 8 µM
- IC50 (EKVX): 0.165 µM
- IC50 (PSN1): 4 µM
- IC50 (NCI-H1355): > 8 µM
- IC50 (SW 962): > 8 µM
- IC50 (DEL): > 8 µM
- IC50 (LXF-289 cell line): > 8 µM
- IC50 (MFM-223): > 8 µM
- IC50 (BT-474): > 8 µM
- IC50 (SW982): > 8 µM
- IC50 (Becker): > 8 µM
- IC50 (NCI-H1770): > 8 µM
- IC50 (GT3TKB): > 8 µM
- IC50 (OCI-AML2): > 8 µM
- IC50 (MLMA): > 8 µM
- IC50 (CTV-1): > 8 µM
- IC50 (OS-RC-2): > 8 µM
- IC50 (GI-ME-N): > 8 µM
- IC50 (EW-1): > 8 µM
- IC50 (SCC-15): > 8 µM
- IC50 (CW-2): > 8 µM
- IC50 (RKO): > 8 µM

SMILES: CCC/C=C/C=C/C(=O)O[C@H]1/C(=C/C(=O)OC)C[C@H]2C[C@H]([C@@H](C)O)OC(=O)C[C@H](O)C[C@@H]3C[C@H](OC(C)=O)C(C)(C)[C@](O)(C[C@@H]4C/C(=C/C(=O)OC)C[C@H](/C=C/C(C)(C)[C@]1(O)O2)O4)O3 [BRYOSTATIN 1]
- IC50 (MHH-PREB-1): > 0.008 µM
- IC50 (EW-13): > 0.008 µM
- IC50 (KINGS-1): > 0.008 µM
- IC50 (EOL1): > 0.008 µM
- IC50 (KURAMOCHI): > 0.008 µM
- IC50 (KMOE-2): > 0.008 µM
- IC50 (D-263MG): > 0.008 µM
- IC50 (QIMR-WIL): > 0.008 µM
- IC50 (D-392MG): > 0.008 µM
- IC50 (TE-6): > 0.008 µM
- IC50 (MS-1): > 0.008 µM
- IC50 (SK-LMS-1): > 0.008 µM
- IC50 (A101D): > 0.008 µM
- IC50 (LAMA-84): > 0.008 µM
- IC50 (LB373-MEL-D): > 0.008 µM
- IC50 (SK-NEP-1): > 0.008 µM
- IC50 (NB13): > 0.008 µM
- IC50 (BB65-RCC): > 0.008 µM
- IC50 (SNU-C2B): > 0.008 µM
- IC50 (HT-144): > 0.008 µM
- IC50 (MOLT-4): > 0.008 µM
- IC50 (IST-MES1): > 0.008 µM
- IC50 (HOP-62): > 0.008 µM
- IC50 (RPMI-8226): > 0.008 µM
- IC50 (J-RT3-T3-5): > 0.008 µM
- IC50 (DMS-79): > 0.008 µM
- IC50 (A704): > 0.008 µM
- IC50 (KG-1): > 0.008 µM
- IC50 (EKVX): > 0.008 µM
- IC50 (PSN1): > 0.008 µM
- IC50 (NCI-H1355): > 0.008 µM
- IC50 (SW 962): > 0.008 µM
- IC50 (DEL): > 0.008 µM
- IC50 (LXF-289 cell line): > 0.008 µM
- IC50 (MFM-223): > 0.008 µM
- IC50 (BT-474): > 0.008 µM
- IC50 (SW982): > 0.008 µM
- IC50 (Becker): > 0.008 µM
- IC50 (NCI-H1770): > 0.008 µM
- IC50 (GT3TKB): > 0.008 µM
- IC50 (OCI-AML2): > 0.008 µM
- IC50 (MLMA): > 0.008 µM
- IC50 (CTV-1): > 0.008 µM
- IC50 (OS-RC-2): > 0.008 µM
- IC50 (GI-ME-N): > 0.008 µM
- IC50 (EW-1): > 0.008 µM
- IC50 (SCC-15): > 0.008 µM
- IC50 (CW-2): > 0.008 µM
- IC50 (RKO): > 0.008 µM

Source: ChEMBL document CHEMBL1201861, “Genomics of Drug Sensitity in Cancer screening data, Wellcome Trust Sanger Institute”
